# Source: patent publication US7396837B2, “Antitumoral analogs of lamellarins” (Pharma Mar, S.A.U., priority 2002, dated 2008)
# Like-named read-outs stand apart in the source and are kept apart here.
# Experiments:
# Type in all cases: cell-based
# K-562 = test: SRB colorimetric cell growth inhibition assay, K-562; details: Homo sapiens, K562, K-562; for GI50: GI=growth inhibition, read-out: GI50 K-562; for CC50: LC=cell killing (cytotoxic effect), read-out: LC50 K-562; for IC (TGI): TGI=total growth inhibition (cytostatic effect), read-out: TGI K-562
# How it was run: (§1)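 Cancer cells grown in vitro were continuously treated with compound. Cell mass was then determined by SRB staining and expressed as growth inhibition.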
# A-549 = test: SRB colorimetric cell growth inhibition assay, A-549; details: Homo sapiens, A549, A-549; for GI50: GI=growth inhibition, read-out: GI50 A-549; for CC50: LC=cell killing (cytotoxic effect), read-out: LC50 A-549; for IC (TGI): TGI=total growth inhibition (cytostatic effect), read-out: TGI A-549
# How it was run: as §1
# SK-MEL-28 = test: SRB colorimetric cell growth inhibition assay, SK-MEL-28
# How it was run: as §1
# HT-29 = test: SRB colorimetric cell growth inhibition assay, HT-29; details: Homo sapiens; for GI50: GI=growth inhibition, read-out: GI50 HT-29; for CC50: LC=cell killing (cytotoxic effect), read-out: LC50 HT-29; for IC (TGI): TGI=total growth inhibition (cytostatic effect), read-out: TGI HT-29
# How it was run: as §1
# LoVo = test: SRB colorimetric cell growth inhibition assay, LoVo; details: Homo sapiens, LoVo; for GI50: GI=growth inhibition, read-out: GI50 LOVO; for CC50: LC=cell killing (cytotoxic effect), read-out: LC50 LOVO; for IC (TGI): TGI=total growth inhibition (cytostatic effect), read-out: TGI LOVO
# How it was run: as §1
# LoVo-Dox = test: SRB colorimetric cell growth inhibition assay, LoVo-Dox (MDR); details: Homo sapiens, LOVO-DOX; for GI50: GI=growth inhibition, read-out: GI50 LOVO-DOX; for CC50: LC=cell killing (cytotoxic effect), read-out: LC50 LOVO-DOX; for IC (TGI): TGI=total growth inhibition (cytostatic effect), read-out: TGI LOVO-DOX
# How it was run: as §1
# DU-145 = test: SRB colorimetric cell growth inhibition assay, DU-145; details: Homo sapiens, DU-145, DU-145; for GI50: GI=growth inhibition, read-out: GI50 DU-145; for CC50: LC=cell killing (cytotoxic effect), read-out: LC50 DU-145; for IC (TGI): TGI=total growth inhibition (cytostatic effect), read-out: TGI DU-145
# How it was run: as §1
# LNCaP = test: SRB colorimetric cell growth inhibition assay, LNCaP; details: Homo sapiens, LNCaP, LN-caP; for GI50: GI=growth inhibition, read-out: GI50 LN-caP; for CC50: LC=cell killing (cytotoxic effect), read-out: LC50 LN-caP; for IC (TGI): TGI=total growth inhibition (cytostatic effect), read-out: TGI LN-caP
# How it was run: as §1
# SK-BR-3 = test: SRB colorimetric cell growth inhibition assay, SK-BR-3; details: Homo sapiens, SK-BR-3, SK-BR-3; for GI50: GI=growth inhibition, read-out: GI50 SK-BR-3; for CC50: LC=cell killing (cytotoxic effect), read-out: LC50 SK-BR-3; for IC (TGI): TGI=total growth inhibition (cytostatic effect), read-out: TGI SK-BR-3
# How it was run: as §1
# IGROV = test: SRB colorimetric cell growth inhibition assay, IGROV; details: Homo sapiens, IGROV; for GI50: GI=growth inhibition, read-out: GI50 IGROV; for CC50: LC=cell killing (cytotoxic effect), read-out: LC50 IGROV; for IC (TGI): TGI=total growth inhibition (cytostatic effect), read-out: TGI IGROV
# How it was run: as §1
# IGROV-ET = test: SRB colorimetric cell growth inhibition assay, IGROV-ET (ET-743 resistant); details: Homo sapiens, IGROV-ET; for GI50: GI=growth inhibition, read-out: GI50 IGROV-ET; for CC50: LC=cell killing (cytotoxic effect), read-out: LC50 IGROV-ET; for IC (TGI): TGI=total growth inhibition (cytostatic effect), read-out: TGI IGROV-ET
# How it was run: as §1
# PANC-1 = test: SRB colorimetric cell growth inhibition assay, PANC-1; details: Homo sapiens, PANC-1, PANC-1; for GI50: GI=growth inhibition, read-out: GI50 PANC-1; for CC50: LC=cell killing (cytotoxic effect), read-out: LC50 PANC-1; for IC (TGI): TGI=total growth inhibition (cytostatic effect), read-out: TGI PANC-1
# How it was run: as §1
# SKOV-3 = test: SRB colorimetric cell growth inhibition assay, SKOV-3; details: Homo sapiens; for GI50: SK-OV-3, SKOV-3, GI=growth inhibition, read-out: GI50 SKOV-3; for IC (TGI): TGI=total growth inhibition (cytostatic effect), read-out: TGI SKOV-3
# From the text: Inhibition of Cell Growth by Colorimetric Assay.
# A colorimetric type of assay, using sulforhodamine B (SRB) reaction has been adapted for a quantitative measurement of cell growth and viability (following the technique described by P. A. Skehan, et al., J. Natl. Cancer Inst. 1990, 82, 1107-1112).
# This form of assay employs 96 well cell culture microplates of 9 mm diameter (T. Mosmann et al., J. of Immunological Methods 1983, 65, 55-63; G. T. Faircloth et al., J. of Tissue and Culture Methods 1988, 11, 201-205).
# Most of the cell lines are obtained from American Type Culture Collection (ATCC) derived from different human cancer types.
# The values for mean +/− SD of data from triplicate wells are calculated. Some parameters for cellular responses can be calculated: GI=growth inhibition, TGI=total growth inhibition (cytostatic effect) and LC=cell killing (cytotoxic effect).
# [1] = Homo sapiens, SK-MEL-28, MEL-28; GI=growth inhibition; read-out: GI50 MEL-28
# [2] = Homo sapiens, SK-MEL-28, MEL-28; LC=cell killing (cytotoxic effect); read-out: LC50 MEL-28
# [3] = Homo sapiens, SK-MEL-28, MEL-28; TGI=total growth inhibition (cytostatic effect); read-out: TGI MEL-28
# [4] = SK-OV-3, SKOV-3, LC=cell killing (cytotoxic effect), read-out: LC50 SKOV-3
SMILES,GI50 (K-562) [µM],CC50 (K-562) [µM],IC (TGI) (K-562) [µM],GI50 (A-549) [µM],CC50 (A-549) [µM],IC (TGI) (A-549) [µM],GI50 (SK-MEL-28; [1]) [µM],CC50 (SK-MEL-28; [2]) [µM],"CC50 (HT-29; HT-29, HT-29) [µM]",GI50 (LoVo) [µM],CC50 (LoVo) [µM],IC (TGI) (LoVo) [µM],GI50 (LoVo-Dox) [µM],CC50 (LoVo-Dox) [µM],IC (TGI) (LoVo-Dox) [µM],GI50 (DU-145) [µM],CC50 (DU-145) [µM],IC (TGI) (DU-145) [µM],GI50 (SK-BR-3) [µM],CC50 (SK-BR-3) [µM],further results
COc1cc(-c2c3n(c4c(=O)oc5cc(OC(=O)[C@H](C)N)c(OC)cc5c24)CCc2cc(OC(=O)[C@H](C)N)c(OC)cc2-3)ccc1OC(=O)[C@H](C)N [Compound 42],0.313,5.42,1.79,0.735,9.46,2.99,1.23,8.94,9.46,0.463,9.46,3.63,0.395,9.46,2.32,0.365,9.46,2.28,2,8.04,"IC (TGI) (SK-MEL-28; [3]): 3.32 µM; GI50 (HT-29; HT-29, HT-29): 3.91 µM; IC (TGI) (HT-29; HT-29, HT-29): 9.46 µM; GI50 (LNCaP): 0.377 µM; CC50 (LNCaP): 4.91 µM; IC (TGI) (LNCaP): 1.41 µM; IC (TGI) (SK-BR-3): 4.01 µM; GI50 (IGROV): 0.185 µM; CC50 (IGROV): 2.83 µM; IC (TGI) (IGROV): 0.56 µM; GI50 (IGROV-ET): 0.238 µM; CC50 (IGROV-ET): 6.62 µM; IC (TGI) (IGROV-ET): 0.678 µM; GI50 (PANC-1): 0.732 µM; CC50 (PANC-1): 9.46 µM; IC (TGI) (PANC-1): 4.06 µM; GI50 (SKOV-3): 1.24 µM; CC50 (SKOV-3; [4]): 9.46 µM; IC (TGI) (SKOV-3; SK-OV-3, SKOV-3): 4.44 µM"
COc1cc(-c2c3c4cc(OC)c(OC(=O)[C@@H](N)CC(C)C)cc4oc(=O)c3n3ccc4c(OC(=O)[C@@H](N)CC(C)C)c(OC)c(OC)cc4c23)ccc1OC(=O)[C@@H](N)CC(C)C [Compound 45],0.315,8.79,1.73,4.35,11.5,11.5,0.898,11.5,11.5,0.771,11.5,6.71,0.778,11.5,4.51,0.105,11.5,0.549,0.414,11.5,"IC (TGI) (SK-MEL-28; Homo sapiens, SK-MEL-28; MEL-28; TGI=total growth inhibition (cytostatic effect); read-out: TGI MEL-28): 11.5 µM; GI50 (HT-29; HT-29): 11.5 µM; IC (TGI) (HT-29; HT-29): 11.5 µM; IC (TGI) (SK-BR-3): 1.58 µM; GI50 (IGROV): 1.57 µM; CC50 (IGROV): 10.9 µM; IC (TGI) (IGROV): 4.12 µM; GI50 (IGROV-ET): 2.58 µM; CC50 (IGROV-ET): 11.5 µM; IC (TGI) (IGROV-ET): 8.07 µM; GI50 (PANC-1): 2.03 µM; CC50 (PANC-1): 11.5 µM; IC (TGI) (PANC-1): 9.75 µM; GI50 (SKOV-3): 0.175 µM; CC50 (SKOV-3; SK-OV-3, read-out: LC50 SKOV-3): 11.5 µM; IC (TGI) (SKOV-3; SK-OV-3, SKOV-3): 2.2 µM"
COc1cc(-c2c3c4cc(OC)c(OC(=O)[C@H](C)NC(=O)OC(C)(C)C)cc4oc(=O)c3n3ccc4cc(OC(=O)[C@H](C)NC(=O)OC(C)(C)C)c(OC)cc4c23)ccc1OC(=O)[C@H](C)NC(=O)OC(C)(C)C [Compound 41],1.77,8.02,3.76,2.42,9.87,8.01,1.86,9.43,9.87,3.31,9.87,9.87,4.2,9.87,9.87,0.679,9.87,9.87,1.62,9.87,"IC (TGI) (SK-MEL-28; [3]): 4.19 µM; GI50 (HT-29; HT-29, HT-29): 3.24 µM; IC (TGI) (HT-29; HT-29, HT-29): 8.89 µM; GI50 (LNCaP): 2.1 µM; CC50 (LNCaP): 9.87 µM; IC (TGI) (LNCaP): 6.47 µM; IC (TGI) (SK-BR-3): 4.85 µM; GI50 (IGROV): 0.0917 µM; CC50 (IGROV): 4.7 µM; IC (TGI) (IGROV): 0.492 µM; GI50 (IGROV-ET): 0.188 µM; CC50 (IGROV-ET): 9.87 µM; IC (TGI) (IGROV-ET): 0.852 µM; GI50 (PANC-1): 2.48 µM; CC50 (PANC-1): 9.87 µM; IC (TGI) (PANC-1): 9.87 µM; GI50 (SKOV-3): 5.95 µM; CC50 (SKOV-3; [4]): 9.87 µM; IC (TGI) (SKOV-3; SK-OV-3, SKOV-3): 9.87 µM"
